The values below come from article PMC7604503, “Cyclic peptides can engage a single binding pocket through highly divergent modes” (Proceedings of the National Academy of Sciences of the …, 2020).

Molecules are shown by their SMILES. Where a SMILES comes first, the peptide text is derived from it. Bridges are numbered along the chain shown (N, C = ends).

Holding throughout (experiment): BROMOscan competition binding assay (BromoMAX, Eurofins DiscoverX)
One test concerns the target T1, BRD9 (Homo sapiens, UniProt Q9H8M2).
T1 construct: purchased Eurofins DiscoverX (BROMOscan, BromoMAX)
T1 sequence (Q9H8M2 1-597): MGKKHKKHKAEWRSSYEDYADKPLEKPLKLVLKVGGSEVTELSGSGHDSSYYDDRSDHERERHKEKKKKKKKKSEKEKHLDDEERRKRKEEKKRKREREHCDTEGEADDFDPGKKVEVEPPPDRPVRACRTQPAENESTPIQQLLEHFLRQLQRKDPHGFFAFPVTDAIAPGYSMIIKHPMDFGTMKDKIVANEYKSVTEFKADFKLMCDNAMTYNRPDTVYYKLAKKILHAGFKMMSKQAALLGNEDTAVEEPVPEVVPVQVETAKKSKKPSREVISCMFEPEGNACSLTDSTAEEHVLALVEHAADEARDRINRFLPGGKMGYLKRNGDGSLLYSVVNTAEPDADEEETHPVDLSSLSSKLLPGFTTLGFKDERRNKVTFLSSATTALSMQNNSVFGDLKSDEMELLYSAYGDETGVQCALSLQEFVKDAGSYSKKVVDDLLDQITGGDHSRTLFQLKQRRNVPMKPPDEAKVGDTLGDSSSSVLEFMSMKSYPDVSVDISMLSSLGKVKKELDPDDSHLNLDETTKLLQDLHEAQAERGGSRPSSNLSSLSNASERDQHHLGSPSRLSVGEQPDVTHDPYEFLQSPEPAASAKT
To be noted: for Percent Control BRD9: compound concentration 1000 nM, lower percentage control = stronger affinity.

The target in a further test is T2, BRPF3 (Homo sapiens, UniProt Q9ULD4).
T2 construct: purchased Eurofins DiscoverX (BROMOscan, BromoMAX)
T2 sequence (Q9ULD4 1-1205): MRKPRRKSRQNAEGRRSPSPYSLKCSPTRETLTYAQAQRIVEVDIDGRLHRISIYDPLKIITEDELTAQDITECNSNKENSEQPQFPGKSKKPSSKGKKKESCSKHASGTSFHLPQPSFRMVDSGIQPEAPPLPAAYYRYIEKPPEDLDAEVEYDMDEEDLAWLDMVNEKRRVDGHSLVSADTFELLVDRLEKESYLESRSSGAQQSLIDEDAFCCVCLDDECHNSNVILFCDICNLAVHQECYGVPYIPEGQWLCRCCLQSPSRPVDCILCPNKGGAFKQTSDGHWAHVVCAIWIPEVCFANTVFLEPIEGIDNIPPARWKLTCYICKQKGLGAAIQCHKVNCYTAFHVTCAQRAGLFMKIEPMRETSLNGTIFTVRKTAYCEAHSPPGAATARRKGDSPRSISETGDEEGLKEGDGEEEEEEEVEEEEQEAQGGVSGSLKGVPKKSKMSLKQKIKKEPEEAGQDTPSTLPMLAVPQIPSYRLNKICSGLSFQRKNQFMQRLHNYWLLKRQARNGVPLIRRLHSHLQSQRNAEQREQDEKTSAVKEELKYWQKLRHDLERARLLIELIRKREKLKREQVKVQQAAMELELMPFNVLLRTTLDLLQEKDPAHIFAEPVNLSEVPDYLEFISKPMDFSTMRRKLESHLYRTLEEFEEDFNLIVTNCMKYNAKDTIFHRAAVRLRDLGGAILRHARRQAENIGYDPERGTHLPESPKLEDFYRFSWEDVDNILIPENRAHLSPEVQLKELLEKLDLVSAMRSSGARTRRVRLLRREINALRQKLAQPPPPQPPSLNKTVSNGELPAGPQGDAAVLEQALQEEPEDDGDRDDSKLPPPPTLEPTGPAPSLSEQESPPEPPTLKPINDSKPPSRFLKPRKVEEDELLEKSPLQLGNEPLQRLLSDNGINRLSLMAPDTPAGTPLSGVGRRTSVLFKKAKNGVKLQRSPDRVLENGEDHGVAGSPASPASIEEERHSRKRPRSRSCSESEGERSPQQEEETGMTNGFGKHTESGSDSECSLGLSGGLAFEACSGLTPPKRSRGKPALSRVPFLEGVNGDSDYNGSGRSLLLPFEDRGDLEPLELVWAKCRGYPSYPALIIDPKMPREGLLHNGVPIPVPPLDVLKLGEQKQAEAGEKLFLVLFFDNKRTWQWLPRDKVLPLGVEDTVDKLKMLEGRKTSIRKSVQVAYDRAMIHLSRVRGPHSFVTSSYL
To be noted: for Percent Control BRPF3: compound concentration 1000 nM, lower percentage control = stronger affinity.

The target of a further test is T3, BRPF1 (Homo sapiens, UniProt P55201).
T3 construct: purchased Eurofins DiscoverX (BROMOscan, BromoMAX)
T3 sequence (P55201 1-1214): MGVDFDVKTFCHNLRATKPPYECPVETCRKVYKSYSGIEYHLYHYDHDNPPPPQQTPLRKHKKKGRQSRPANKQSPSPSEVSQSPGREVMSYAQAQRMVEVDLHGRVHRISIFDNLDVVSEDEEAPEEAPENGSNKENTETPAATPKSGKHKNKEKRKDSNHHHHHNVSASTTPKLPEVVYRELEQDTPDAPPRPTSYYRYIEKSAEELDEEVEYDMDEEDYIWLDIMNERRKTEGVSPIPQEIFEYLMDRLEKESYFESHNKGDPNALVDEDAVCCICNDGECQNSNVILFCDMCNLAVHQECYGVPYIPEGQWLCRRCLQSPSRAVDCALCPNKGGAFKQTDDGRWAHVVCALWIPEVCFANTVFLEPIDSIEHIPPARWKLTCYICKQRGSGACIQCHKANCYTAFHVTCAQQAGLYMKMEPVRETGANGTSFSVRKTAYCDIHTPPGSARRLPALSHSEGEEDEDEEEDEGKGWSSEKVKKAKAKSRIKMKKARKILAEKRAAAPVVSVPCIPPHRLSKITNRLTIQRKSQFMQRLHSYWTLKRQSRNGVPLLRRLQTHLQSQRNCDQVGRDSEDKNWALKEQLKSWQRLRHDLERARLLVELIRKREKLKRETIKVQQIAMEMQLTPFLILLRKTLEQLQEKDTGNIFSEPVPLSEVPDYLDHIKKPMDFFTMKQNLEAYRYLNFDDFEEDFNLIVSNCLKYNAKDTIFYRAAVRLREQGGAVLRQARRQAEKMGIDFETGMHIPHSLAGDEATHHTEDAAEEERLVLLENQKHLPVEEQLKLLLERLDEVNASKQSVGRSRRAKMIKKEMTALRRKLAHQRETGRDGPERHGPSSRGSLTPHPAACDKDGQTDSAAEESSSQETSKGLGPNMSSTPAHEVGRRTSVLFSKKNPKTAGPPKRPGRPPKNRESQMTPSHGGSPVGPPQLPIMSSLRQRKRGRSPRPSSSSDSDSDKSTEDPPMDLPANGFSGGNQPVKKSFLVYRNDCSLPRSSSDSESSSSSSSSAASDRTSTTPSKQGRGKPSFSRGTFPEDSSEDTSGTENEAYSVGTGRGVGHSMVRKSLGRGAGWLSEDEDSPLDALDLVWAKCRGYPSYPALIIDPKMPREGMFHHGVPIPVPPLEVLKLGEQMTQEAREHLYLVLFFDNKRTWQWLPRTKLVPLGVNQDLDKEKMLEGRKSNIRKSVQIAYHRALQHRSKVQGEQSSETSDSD
To be noted: for Percent Control BRPF1: compound concentration 1000 nM, lower percentage control = stronger affinity.

The next test has as its target T4, BAZ2B (Homo sapiens, UniProt Q9UIF8).
T4 construct: purchased Eurofins DiscoverX (BROMOscan, BromoMAX)
To be noted: for Percent Control BAZ2B: compound concentration 1000 nM, lower percentage control = stronger affinity.

T4 sequence (Q9UIF8 whole entry): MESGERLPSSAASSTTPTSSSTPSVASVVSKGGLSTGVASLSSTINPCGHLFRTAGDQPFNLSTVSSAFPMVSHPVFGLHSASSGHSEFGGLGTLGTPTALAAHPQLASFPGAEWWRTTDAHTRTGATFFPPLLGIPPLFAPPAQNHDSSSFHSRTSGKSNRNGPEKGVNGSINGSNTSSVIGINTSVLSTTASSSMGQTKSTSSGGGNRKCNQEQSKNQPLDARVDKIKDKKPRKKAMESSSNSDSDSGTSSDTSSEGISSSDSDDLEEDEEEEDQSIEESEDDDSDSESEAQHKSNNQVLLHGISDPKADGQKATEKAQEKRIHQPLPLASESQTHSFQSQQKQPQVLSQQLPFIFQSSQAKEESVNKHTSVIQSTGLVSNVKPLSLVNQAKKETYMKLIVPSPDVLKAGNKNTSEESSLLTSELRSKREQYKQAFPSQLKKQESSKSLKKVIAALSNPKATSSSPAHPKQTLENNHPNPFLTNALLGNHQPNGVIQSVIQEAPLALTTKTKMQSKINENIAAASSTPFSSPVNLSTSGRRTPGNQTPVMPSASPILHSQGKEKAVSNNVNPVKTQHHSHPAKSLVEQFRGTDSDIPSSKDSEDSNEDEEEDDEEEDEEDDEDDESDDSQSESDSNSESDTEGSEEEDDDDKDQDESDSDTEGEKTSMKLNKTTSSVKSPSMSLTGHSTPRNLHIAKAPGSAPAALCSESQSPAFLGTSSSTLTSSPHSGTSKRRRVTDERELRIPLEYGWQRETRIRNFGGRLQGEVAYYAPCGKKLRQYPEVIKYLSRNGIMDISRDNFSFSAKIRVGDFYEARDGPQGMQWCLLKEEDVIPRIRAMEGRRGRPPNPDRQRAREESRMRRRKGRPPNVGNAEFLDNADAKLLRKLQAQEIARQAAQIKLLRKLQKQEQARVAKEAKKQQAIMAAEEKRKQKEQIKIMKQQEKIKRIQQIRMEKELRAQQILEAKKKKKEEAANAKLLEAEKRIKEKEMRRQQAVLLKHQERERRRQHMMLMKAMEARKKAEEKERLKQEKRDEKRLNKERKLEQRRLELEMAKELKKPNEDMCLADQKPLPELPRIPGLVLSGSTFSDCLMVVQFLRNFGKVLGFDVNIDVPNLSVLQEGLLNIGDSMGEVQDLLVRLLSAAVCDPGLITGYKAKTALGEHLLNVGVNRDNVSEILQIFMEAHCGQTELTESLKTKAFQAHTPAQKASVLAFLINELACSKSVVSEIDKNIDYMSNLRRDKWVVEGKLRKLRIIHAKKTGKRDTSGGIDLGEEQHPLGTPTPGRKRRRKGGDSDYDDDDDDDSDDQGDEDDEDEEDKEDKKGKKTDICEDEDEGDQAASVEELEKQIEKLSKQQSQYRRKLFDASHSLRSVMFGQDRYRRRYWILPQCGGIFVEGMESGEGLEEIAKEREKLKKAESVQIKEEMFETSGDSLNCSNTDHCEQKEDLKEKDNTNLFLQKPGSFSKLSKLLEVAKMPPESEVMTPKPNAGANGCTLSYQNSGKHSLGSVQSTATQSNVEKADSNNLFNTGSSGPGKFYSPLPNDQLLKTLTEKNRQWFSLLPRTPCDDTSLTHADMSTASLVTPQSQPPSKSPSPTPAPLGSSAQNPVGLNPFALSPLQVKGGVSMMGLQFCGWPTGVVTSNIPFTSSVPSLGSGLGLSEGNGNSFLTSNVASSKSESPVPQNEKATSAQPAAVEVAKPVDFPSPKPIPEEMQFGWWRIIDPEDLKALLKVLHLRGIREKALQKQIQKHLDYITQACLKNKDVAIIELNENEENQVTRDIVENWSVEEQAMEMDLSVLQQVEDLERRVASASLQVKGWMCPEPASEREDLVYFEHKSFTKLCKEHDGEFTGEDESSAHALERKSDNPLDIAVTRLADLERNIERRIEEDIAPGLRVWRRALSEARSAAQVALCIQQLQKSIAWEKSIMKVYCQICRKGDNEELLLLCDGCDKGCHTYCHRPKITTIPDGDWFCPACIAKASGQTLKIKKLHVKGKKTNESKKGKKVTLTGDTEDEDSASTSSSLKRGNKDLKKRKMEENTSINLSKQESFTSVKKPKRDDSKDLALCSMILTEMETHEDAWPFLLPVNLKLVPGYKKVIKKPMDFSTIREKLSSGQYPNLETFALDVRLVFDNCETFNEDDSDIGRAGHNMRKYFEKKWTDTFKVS

In the case of `CC[C@H](C)[C@H](NC(=O)[C@H](CCCNC(=N)N)NC(=O)[C@H](CCCCNC(C)=O)NC(=O)[C@H](CCCNC(=N)N)NC(=O)[C@H](CC(C)C)NC(=O)[C@@H]1CSCC(=O)N[C@@H](Cc2c[nH]c3ccccc23)C(=O)N[C@@H](CCCCNC(C)=O)C(=O)NCC(=O)N[C@@H](Cc2ccc(O)cc2)C(=O)N[C@@H](CC(C)C)C(=O)N1)C(=O)N[C@@H](CCC(N)=O)C(=O)N[C@@H](CCCNC(=N)N)C(=O)N[C@H](C(=O)N[C@@H](Cc1ccc(O)cc1)C(=O)N[C@@H](CC(N)=O)C(N)=O)[C@@H](C)O` [4.2C] ({CH2CO}-WK(Ac)GYLCLRK(Ac)RIQRTYN-NH2; thioether N-6), the percent of control binding at 1 µM on BRD9 amounted to 89%. For the same compound, the remaining binding at 1 µM amounted to 92% at BRPF3 (read-out: Percent Control BRPF3), 100% on BRPF1 (read-out: Percent Control BRPF1) and 99% on BAZ2B (read-out: Percent Control BAZ2B).

Turning to `CC[C@H](C)[C@@H]1NC(=O)[C@H]([C@@H](C)O)NC(=O)[C@H](CCCCN)NC(=O)[C@H](Cc2c[nH]c3ccccc23)NC(=O)CSC[C@@H](C(N)=O)NC(=O)[C@H](CCC(N)=O)NC(=O)[C@H](CCCCNC(C)=O)NC(=O)[C@H]([C@@H](C)O)NC(=O)[C@H](CCCNC(=N)N)NC(=O)[C@H](Cc2c[nH]c3ccccc23)NC(=O)[C@H]([C@@H](C)O)NC(=O)[C@H](CCCCNC(C)=O)NC(=O)CNC(=O)[C@H](CCCCNC(C)=O)NC1=O` [3.1B] ({CH2CO}-WKTIK(Ac)GK(Ac)TWRTK(Ac)QC-NH2; thioether N-14), the “Percent Control BRD9” value on BRD9 is reported as 100%. Also, the “Percent Control BRPF3” value on BRPF3 amounted to 100%. The “Percent Control BRPF1” value at BRPF1 amounted to 100%. Besides, on BAZ2B, the “Percent Control BAZ2B” value amounted to 100%.

Regarding `CC[C@H](C)[C@@H]1NC(=O)[C@H](Cc2c[nH]c3ccccc23)NC(=O)[C@H](Cc2c[nH]c3ccccc23)NC(=O)CSC[C@@H](C(N)=O)NC(=O)CNC(=O)[C@H](CCCCNC(C)=O)NC(=O)[C@H](CCCCN)NC(=O)[C@H](C(C)C)NC(=O)[C@H](CCCCNC(C)=O)NC(=O)[C@@H]2CCCN2C(=O)[C@H]([C@@H](C)CC)NC1=O` [3.1C] ({CH2CO}-WWIIPK(Ac)VKK(Ac)GC-NH2; thioether N-11), the “Percent Control BRD9” value on BRD9 is on record as 95%. For the same compound, the “Percent Control BRPF3” value on BRPF3 amounted to 95%. At BRPF1, the “Percent Control BRPF1” value was found to be 100%. Moreover, the “Percent Control BAZ2B” value at BAZ2B is reported as 100%.
